Assay results as given in patent US10098949B2, “Adsorption of immunopotentiators to insoluble metal salts” (GlaxoSmithKline Biologicals SA, priority 2010, dated 2018).
Where two headings read alike, the source gives them in different places. One block for each compound: values may come before it.

How the values were obtained:
[1] = Model of in vivo desorption from Al—H; type: in vitro ADME; conditions: 37° C., after 5 hours
[2] = Adsorption to aluminium hydroxide (Al—H) adjuvant, supernatant by HPLC; type: physicochemical; conditions: for % adsorption to Al—H: 10 mM histidine buffer, pH 6.5; for Adsorption Efficiency to aluminum hydroxide: 3 mg/mL aluminum hydroxide, 0.5 mg/mL compound, no buffer, room temperature overnight, RP-HPLC
[3] = system: serogroup B meningococcus; type: in vivo
human TLR7 = target: T1, human TLR7 (Homo sapiens, UniProt Q9NYK1); assay: HEK293 human TLR7 NF-κB luciferase reporter assay; type: cell-based; conditions: HEK293 cells
T1 construct: expressed in transfected cells; host or cells: HEK293
T1 sequence (Q9NYK1 27-1049): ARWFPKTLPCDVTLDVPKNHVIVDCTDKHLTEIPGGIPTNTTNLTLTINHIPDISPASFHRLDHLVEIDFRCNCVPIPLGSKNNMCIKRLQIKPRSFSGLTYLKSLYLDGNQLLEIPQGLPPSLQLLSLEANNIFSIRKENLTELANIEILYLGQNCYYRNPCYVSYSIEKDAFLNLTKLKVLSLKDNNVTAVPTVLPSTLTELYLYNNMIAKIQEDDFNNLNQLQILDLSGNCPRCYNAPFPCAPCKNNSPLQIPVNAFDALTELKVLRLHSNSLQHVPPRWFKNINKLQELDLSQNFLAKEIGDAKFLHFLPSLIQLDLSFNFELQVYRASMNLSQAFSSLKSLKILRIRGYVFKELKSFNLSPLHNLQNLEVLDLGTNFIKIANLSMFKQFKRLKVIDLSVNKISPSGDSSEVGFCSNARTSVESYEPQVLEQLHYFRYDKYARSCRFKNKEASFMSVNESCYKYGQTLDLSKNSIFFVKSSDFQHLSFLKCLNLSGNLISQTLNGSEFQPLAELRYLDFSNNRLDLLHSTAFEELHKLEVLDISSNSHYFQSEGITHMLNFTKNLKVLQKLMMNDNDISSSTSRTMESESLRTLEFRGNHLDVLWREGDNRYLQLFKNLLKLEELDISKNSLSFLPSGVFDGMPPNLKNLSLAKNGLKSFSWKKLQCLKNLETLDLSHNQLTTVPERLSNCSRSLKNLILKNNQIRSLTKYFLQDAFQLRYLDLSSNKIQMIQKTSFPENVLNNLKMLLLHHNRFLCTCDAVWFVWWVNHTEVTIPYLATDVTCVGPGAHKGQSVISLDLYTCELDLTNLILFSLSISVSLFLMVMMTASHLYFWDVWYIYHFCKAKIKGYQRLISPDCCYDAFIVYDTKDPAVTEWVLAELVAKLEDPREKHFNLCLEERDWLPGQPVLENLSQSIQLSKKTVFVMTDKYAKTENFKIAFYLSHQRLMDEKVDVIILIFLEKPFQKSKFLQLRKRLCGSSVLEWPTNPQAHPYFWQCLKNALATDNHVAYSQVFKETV
Protocol: The activity of this compound is assessed in an assay using HEK293 cells which are stably transfected with human TLR7 and an NF-κB-driven luciferase reporter vector (pNifty-Luciferase). As a control assay, normal HEK293 transfected with pNifty-Luc are used. Cells are cultured in DMEM supplemented with 2 mM L-glutamine, 10% heart inactivated FBS, 1% penicillin and streptomycin, 2 μg/ml puromycin and 5 μg/ml of blasticidin. Bright-Glo™ Luciferase assay buffer and substrate are supplied by Promega. Cells are plated at 25,000 cells/well in 384-well plates in a final volume of 50 μl of media. Cells are allowed to adhere to the plates after overnight (18 hours) culture at 37° C. and 5% CO2. Serially-diluted experimental and positive control compounds are then dispensed to each well and incubated for 7 hours at 37° C. and 5% CO2. Cells stimulated with DMSO alone serve as negative controls. After the incubation, 30 μl of the pre-mix assay buffer and substrate buffer are added to each well according to manufacturer's instructions. The luminescence signal is read on a CLIPR machine with an integration time of 20 seconds per plate.

[4] = Solubility in water and in histidine buffer; type: physicochemical; conditions: pH 6.8
[5] = Muscle levels 24 hours after intramuscular injection; type: in vivo, Balb/C mice; conditions: for level of compound in muscle: 24 hours after i.m. injection
human PBMCs = assay: Activity in human PBMCs; type: cell-based
splenocytes = assay: Activity in splenocytes; type: cell-based
serum cytokines = conditions: in vivo
[6] = Association with Al—H particles by confocal microscopy and flow cytometry; type: physicochemical; conditions: confocal microscopy (compound 1) or flow cytometry (compounds 2, O)
[7] = SIF (simulated interstitial fluid)
[8] = 5CVMB, CD-1 mice, days 0 & 14, (b) the agonist compound

SMILES: Cc1cc(OCCCC(F)(F)P(=O)(O)O)ccc1CCc1cnc2c(N)nc3cc(CCC(=O)O)ccc3c2c1 [Compound 3]
proportion desorbed from Al—H ([1]; His buff): 5%
proportion desorbed from Al—H ([1]; Plasma/His buff): 49%
proportion desorbed from Al—H [1, 7]: 100%
compound in supernatant after mixing with aluminium hydroxide (HPLC) [2]: neither compound is observed in the supernatant
% adsorption to Al—H [2]: 96.2%

SMILES: Cc1cc(OCCOCCOCCC(F)(F)P(=O)(O)O)ccc1CCc1cnc2c(N)nc3cc(CCC(=O)O)ccc3c2c1 [Compound 4]
proportion desorbed from Al—H ([1]; His buff): 4%
proportion desorbed from Al—H ([1]; Plasma/His buff): 81%
proportion desorbed from Al—H [1, 7]: 100%
compound in supernatant after mixing with aluminium hydroxide (HPLC) [2]: neither compound is observed in the supernatant
% adsorption to Al—H [2]: 96.0%

SMILES: COCCOc1nc(N)c2nc(O)n(Cc3ccc(CP(=O)(O)O)cc3)c2n1 [Compound 6, (4-((6-amino-2-(2-methoxyethoxy)-8-oxo-7H-purin-9(8H)-yl)methyl)benzyl)phosphonic Acid]
SBA titer at day 28 [3, 8]: 282
SBA titer at day 28 ([3]; in vivo): 4016
activity compared to resiquimod (set to 100%) (human TLR7): 93%
solubility in histidine buffer [4]: soluble
level of compound in muscle ([5]; without Al—H (free form)): undetectable
compound in inguinal lymph nodes or liver ([5]; after 24 hours): could not be detected
activity compared to resiquimod (set to 100%) (human PBMCs): 35%
EC50 (human PBMCs; PBMC, read-out: EC50): 1 µM
activity compared to resiquimod (set to 100%) (splenocytes): 210%
EC50 (splenocytes; Splenocyte, read-out: EC50): 0.98 µM

SMILES: CCOCc1nc2c(N)nc3ccccc3c2n1CCOCCP(=O)(O)O [Compound 7]
activity compared to resiquimod (set to 100%) (human TLR7): 55%
solubility in histidine buffer [4]: insoluble
EC50 (human PBMCs): inactive
EC50 (splenocytes): inactive

SMILES: CCCCCNc1nc(N)nc(C)c1Cc1ccc(CP(=O)(O)O)cc1OC [Compound 8]
activity compared to resiquimod (set to 100%) (human TLR7): 81%
solubility in histidine buffer [4]: insoluble
activity compared to resiquimod (set to 100%) (human PBMCs): 50%
EC50 (human PBMCs; PBMC, read-out: EC50): 10.4 µM
activity compared to resiquimod (set to 100%) (splenocytes): 184%
EC50 (splenocytes; Splenocyte, read-out: EC50): 3.1 µM

SMILES: COCCOc1cc2c(nc(O)n2Cc2ccc(CP(=O)(O)O)cc2)c(N)n1 [Compound 67, (4-((4-amino-6-(2-methoxyethoxy)-2-oxo-2,3-dihydro-1H-imidazo[4,5-c]pyridin-1-yl)methyl)benzyl)phosphonic Acid]
SBA titer at day 28 [3, 8]: 64
SBA titer at day 28 ([3]; in vivo): 949
activity compared to resiquimod (set to 100%) (human TLR7): 103%
solubility in histidine buffer [4]: soluble
% adsorption to Al—H [2]: 82%
level of compound in muscle ([5]; +Al—H): readily detected
level of compound in muscle ([5]; without Al—H (free form)): undetectable
activity compared to resiquimod (set to 100%) (human PBMCs): 59%
EC50 (human PBMCs; PBMC, read-out: EC50): 0.8 µM
activity compared to resiquimod (set to 100%) (splenocytes): 142%
EC50 (splenocytes; Splenocyte, read-out: EC50): 9.3 µM
systemic cytokines, effect of adsorption to Al—H (serum cytokines): generally reduced or unaffected

SMILES: CCOCc1nc2c(N)nc3ccccc3c2n1CCOCCOCCOCCP(=O)(O)O [Compound 68, (2-(2-(2-(2-(4-amino-2-(ethoxymethyl)-1H-imidazo[4,5-c]quinolin-1-yl)ethoxy)ethoxy)ethoxy)ethyl)phosphonic Acid]
SBA titer at day 28 ([3]; in vivo): 404
activity compared to resiquimod (set to 100%) (human TLR7): 75%
solubility in histidine buffer [4]: soluble
% adsorption to Al—H [2]: 94%
level of compound in muscle ([5]; +Al—H): readily detected
level of compound in muscle ([5]; without Al—H (free form)): undetectable
EC50 (human PBMCs): inactive
EC50 (splenocytes): inactive
systemic cytokines, effect of adsorption to Al—H (serum cytokines): generally reduced or unaffected

SMILES: CCCCCNc1nc(N)nc(C)c1Cc1ccc(CP(=O)(O)O)cc1 [Compound 69]
activity compared to resiquimod (set to 100%) (human TLR7): 36%
solubility in histidine buffer [4]: insoluble
EC50 (human PBMCs): inactive
EC50 (splenocytes): inactive

SMILES: CCCCCNc1nc(N)nc(C)c1Cc1ccc(OCCOCCC(F)(F)P(=O)(O)O)cc1OC [Compound 71, (3-(2-(4-((2-amino-4-methyl-6-(pentylamino)pyrimidin-5-yl)methyl)-3-methoxyphenoxy)ethoxy)-1,1-difluoropropyl)phosphonic Acid]
SBA titer at day 28 [3, 8]: 65
SBA titer at day 28 ([3]; in vivo): 1653
activity compared to resiquimod (set to 100%) (human TLR7): 53%
solubility in histidine buffer [4]: soluble
% adsorption to Al—H [2]: 85%
level of compound in muscle ([5]; +Al—H): readily detected
level of compound in muscle ([5]; without Al—H (free form)): undetectable
activity compared to resiquimod (set to 100%) (human PBMCs): 50%
EC50 (human PBMCs; PBMC, read-out: EC50): 9.5 µM
activity compared to resiquimod (set to 100%) (splenocytes): 239%
EC50 (splenocytes; Splenocyte, read-out: EC50): 10.5 µM
systemic cytokines, effect of adsorption to Al—H (serum cytokines): generally reduced or unaffected

SMILES: Cc1ccc2c(c1)nc(N)c1ncc(CCc3ccc(OP(=O)(O)O)cc3C)cc12 [Compound 102]
Adsorption Efficiency to aluminum hydroxide [2]: 85.1%
Adsorption Efficiency to aluminum hydroxide ([2]; listed as compound 102): > 80%

association with Al—H particles [6]: seen as a separate population
% adsorption to Al—H [2]: fails to adsorb
SMILES: Cc1ccc(CCc2cnc3c(N)nc4cc(C)ccc4c3c2)c(C)c1 [O, reference compound]

SMILES: CCOCc1nc2c(N)nc3ccccc3c2n1CC(C)(C)O [resiquimod, reference compound]
SBA titer at day 28 ([3]; 5CVMB, CD-1 mice, days 0 & 14, (e) resiquimod+Al—H, positive control): 1033
